What all share (settings): treatment: drug + dasatinib (fixed dose, not stated); 5 days
The subject of test [1] is 769-P. Put plainly: GI50 of drug in presence of dasatinib; higher = less potent. The protocol: (§1)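 Primary HTS combination arm: 8 RCC cell lines treated with 8 doses (up to 10 uM) of each library drug plus a fixed dose of dasatinib (dose not stated) for 5 days; viability read by CellTiter-Glo and normalised to DMSO. GI50 was fitted with XLfit, AUC is the area under the dose-response curve, and minimum viability is the lowest fraction of DMSO viability across doses.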

The test system of test [2] is SN12C. The description is as above. The protocol: as §1
For test [3], the system named is CAKI-1. Described as above. The protocol:
as §1

Test [4] deals with ACHN. The description is as above. The protocol: as §1
Test [5] concerns UO-31. The description is as above. The protocol:
as §1

Test [6] concerns 786-O. The description is as above. As to the method:
as §1

Test [7] concerns A498. The test is described as above. The protocol:
as §1

Test [8] relates to TK-10. The test is described as above. As to the method: as §1
In test [9] the test system is 769-P. Put plainly: minimum viability across doses, drug + dasatinib, relative to DMSO (fraction); higher = less growth inhibition. The protocol: as §1
Test [10] concerns SN12C. Described as above. As to the method: as §1
Test [11] relates to CAKI-1. The test is described as above. As to the method: as §1
For test [12], the system named is ACHN. The description is as above. The protocol: as §1
Test [13] concerns UO-31. The description is as above. As to the method:
as §1

In test [14] the test system is 786-O. The description is as above. As to the method: as §1
The subject of test [15] is A498. Described as above. As to the method: as §1
Test [16] deals with TK-10. The description is as above. The protocol: as §1
The subject of test [17] is 769-P. Put plainly: AUC of dose-response viability curve, drug + dasatinib, normalised to DMSO (arbitrary (AUC of normalised viability)); higher = less growth inhibition. The protocol:
as §1

In test [18] the test system is SN12C. The test is described as above. As to the method:
as §1

The test system of test [19] is CAKI-1. Described as above. The protocol:
as §1

In test [20] the test system is ACHN. Described as above. The protocol:
as §1

Test [21] concerns UO-31. The test is described as above. As to the method: as §1
The test system of test [22] is 786-O. The description is as above. As to the method: as §1
The subject of test [23] is A498. The description is as above. The protocol: as §1
The subject of test [24] is TK-10. The test is described as above. The protocol: as §1

Molecules are shown by their SMILES. A value given as a limit tells only on which side of the number the result lay.

As for `COc1cc2nccc(Oc3ccc(NC(=O)C4(C(=O)Nc5ccc(F)cc5)CC4)cc3)c2cc1OC` [XL-184 free base (Cabozantinib)] + Cc1nc(Nc2ncc(C(=O)Nc3c(C)cccc3Cl)s2)cc(N2CCN(CCO)CC2)n1 [dasatinib], the GI50 of drug in test [1] worked out at 2000 nM; in [2], 915 nM; in test [3], 193 nM; in test [4] it was 267 nM; in [5], 1840 nM; in test [6] it was 29.5 nM. For the same molecule, the GI50 of drug in test [7] came to 8990 nM; in test [8], 2770 nM. In addition, the “minimum viability across doses” value in [9] is 0.135; in test [10], 0.213; in test [11], 0.0187; in test [12], 0.0617; in [13] it was 0.0162; in test [14], 0.25. Also, the “minimum viability across doses” value in [15] was determined as 0.442; in [16] it was 0.136. For the same molecule, the “AUC of dose-response viability curve” value in [17] amounted to 2.07; in [18], 2.07; in test [19] it was 1.76; in test [20] it was 1.6; in test [21] it was 2.75; in [22], 2.2. In addition, the “AUC of dose-response viability curve” value in test [23] amounted to 3.34; in test [24] it was 2.33.
For the molecule `COCC[n+]1c2c(n(Cc3cnccn3)c1C)C(=O)c1ccccc1C2=O` [YM155] + Cc1nc(Nc2ncc(C(=O)Nc3c(C)cccc3Cl)s2)cc(N2CCN(CCO)CC2)n1 [dasatinib], the GI50 of drug in [1] was 10.7 nM; in test [2], 8.39 nM; in test [3], 4.86 nM; in test [4], 5.43 nM; in test [5], 45 nM; in test [6], greater than 10000 nM. For the same molecule, the values for the GI50 of drug in [7] and in test [8] were 8.38 nM and 14.4 nM, respectively. For the same molecule, the “minimum viability across doses” value was determined as 0.00674 in test [9]; 0.00231 in test [10]; 0.00438 in test [11]; 0.00126 in test [12]; 0.00698 in [13]; 0.00497 in test [14]. For the same molecule, the “minimum viability across doses” value in test [15] is 0.00896; in test [16] it was 0.0206. Moreover, the “AUC of dose-response viability curve” value in test [17] came to 0.63; in [18], 0.503; in test [19], 0.385; in [20] it was 0.479; in test [21], 1.3; in test [22], 0.302. In addition, the results for the “AUC of dose-response viability curve” value in test [23] and in [24] were 0.476 and 0.933, respectively.
As to `FC(F)c1nc2ccccc2n1-c1nc(N2CCOCC2)nc(N2CCOCC2)n1` [ZSTK474] + Cc1nc(Nc2ncc(C(=O)Nc3c(C)cccc3Cl)s2)cc(N2CCN(CCO)CC2)n1 [dasatinib], the GI50 of drug in [1] came to 169 nM; in test [2], 420 nM; in test [3], 44.5 nM; in test [4], 102 nM; in test [5], 194 nM; in [6], 118 nM. The GI50 of drug in test [7] was determined as 1090 nM; in [8], 328 nM. The “minimum viability across doses” value stood at 0.0686 in [9]; 0.159 in [10]; 0.0415 in [11]; 0.0709 in test [12]; 0.00787 in [13]; 0.00535 in test [14]. For the same molecule, the “minimum viability across doses” value in [15] came out at 0.0549; in test [16] it was 0.115. Besides, the “AUC of dose-response viability curve” value in [17] came to 1.61; in [18] it was 1.99; in test [19], 1.37; in test [20], 1.45; in [21] it was 1.73; in [22] it was 1.61. Besides, the figures for the “AUC of dose-response viability curve” value in test [23] and in test [24] were 2.35 and 1.97, respectively.
Consider `O=C(O)c1ccc2c(c1)nc(Nc1cccc(Cl)c1)c1ccncc12` [cx-4945 (Silmitasertib)] + Cc1nc(Nc2ncc(C(=O)Nc3c(C)cccc3Cl)s2)cc(N2CCN(CCO)CC2)n1 [dasatinib], for which the GI50 of drug in [1] is greater than 10000 nM; in [2], greater than 10000 nM; in [3], 1270 nM; in test [4], 3240 nM; in test [5], greater than 10000 nM; in test [6], less than 3 nM. Further, the GI50 of drug in [7] and in test [8] was greater than 10000 nM each time. The “minimum viability across doses” value in [9] is 0.595; in [10] it was 0.642; in [11], 0.033; in test [12], 0.169; in test [13], 0.865; in test [14], 0.313. The “minimum viability across doses” value in [15] stood at 0.47; in test [16], 0.645. In addition, the “AUC of dose-response viability curve” value was 2.44 in test [17]; 2.52 in test [18]; 2.12 in [19]; 2.01 in [20]; 4.08 in test [21]; 1.99 in test [22]. Besides, the “AUC of dose-response viability curve” value is 2.87 in test [23] and 2.54 in test [24].

(Values after the supplement of paper PMC8149375.)
